According to patent US9321728B2, “Beta-alanine derivatives, pharmaceutically acceptable salts thereof, and pharmaceutical composition comprising same as active ingredient” (KOREA RESEARCH INSTITUTE OF CHEMICAL TECHNOLOGY, priority 2012, dated 2016):

Target: human DGAT1 (Homo sapiens (Human), UniProt O75907)
Experiment: Human DGAT1 enzyme inhibition test (phospholipid FlashPlate, [14C]decanoyl-CoA)
Assay type: biochemical
Conditions: for IC50: lysate of Hep3B cells over-expressing human DGAT1 (5 μg/well), didecanoyl glycerol and [14C]decanoyl-CoA substrates; for in vitro inhibition activity with respect to DGAT1: verbal summary of Table 1
Experimental: The cells were treated with 200 μg/ml G-418(Sigma) once every three days for 4 weeks to over-express the human DGAT1, thereby obtaining a stabilized cell line. The over-expressed cells were put into a homogenization buffer [250 mM sucrose, 10 mM Tris-HCl (pH 7.4), 1 mM EDTA] and lysed by a homogenization apparatus. Then, centrifugation was performed with 600×g for 15 minutes to remove cell residue, and the obtained cells were used for an enzyme inhibition test. Human DGAT-1 and mouse DGAT activity was determined as follows: Assay buffer [20 mM HEPES (pH 7.4), 100 mM MgCl2, 0.04% BSA] containing 500 μM of enzyme substrate (didecanoyl glycerol) and 7.5 μM radiolabeled acyl-CoA substrate ([^14C]decanoyl-CoA) was added to each well of a phospholipid FlashPlate (PerkinElmer Life Sciences). A small aliquot of lysate (5 μg/well) or mouse liver microsome (0.1 mg/well) was added to start the reaction, which was allowed to proceed in a 20° C. bath for 1 hour. and maintained overnight at room temperature. Next day, measurement was performed by Wallac 1450 Microbeta Trilux Liquid Scintillation Counter and Luminometer (PerkinElmer Life Science). […] A calculation method of inhibition degree (%) is as follows.

human DGAT1, sequence (O75907 whole entry): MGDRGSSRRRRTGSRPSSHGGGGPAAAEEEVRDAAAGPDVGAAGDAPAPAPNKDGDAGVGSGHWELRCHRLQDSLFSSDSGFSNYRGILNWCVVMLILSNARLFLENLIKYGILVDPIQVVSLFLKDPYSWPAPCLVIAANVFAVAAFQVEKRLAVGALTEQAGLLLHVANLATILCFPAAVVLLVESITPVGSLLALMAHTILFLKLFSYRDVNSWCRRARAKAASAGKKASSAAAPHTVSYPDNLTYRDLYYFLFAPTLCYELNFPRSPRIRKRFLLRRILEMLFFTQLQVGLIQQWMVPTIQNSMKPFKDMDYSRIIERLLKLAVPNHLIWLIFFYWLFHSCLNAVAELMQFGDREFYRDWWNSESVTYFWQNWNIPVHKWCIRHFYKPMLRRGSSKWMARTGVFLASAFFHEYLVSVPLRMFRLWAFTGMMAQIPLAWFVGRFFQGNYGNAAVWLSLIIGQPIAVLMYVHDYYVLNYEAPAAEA

IC50	in vitro inhibition activity with respect to DGAT1	Compound
< 50 nM	good to excellent	CCOc1ccc(C(=O)NCCC(=O)Nc2ccc([C@H]3CC[C@H](CC(=O)O)CC3)cc2)cc1 [Compound 4, trans-(4-{4-[3-(4-ethoxybenzoylamino)propionylamino]phenyl}cyclohexyl)acetic acid]
< 50 nM	good to excellent	O=C(O)C[C@H]1CC[C@H](c2ccc(NC(=O)CCNC(=O)c3nc(-c4ccccc4)oc3C(F)(F)F)cc2)CC1 [Compound 6, trans-[4-(4-{3-[(2-Phenyl-5-trifluoromethyloxazole-4-carbonyl)amino]propionylamino}phenyl)cyclohexyl]acetic acid]
< 100 nM	–	O=C(O)C[C@H]1CC[C@H](c2ccc(NC(=O)CCNC(=O)c3cn(-c4ccccc4)nc3C(F)(F)F)cc2)CC1 [Compound 7, trans-[4-(4-{3-[(1-phenyl-3-trifluoromethyl-1H-pyrazole-4-carbonyl)amino]propionylamino}phenyl)cyclohexyl]acetic acid]
< 50 nM	good to excellent	O=C(O)C[C@H]1CC[C@H](c2ccc(NC(=O)CCNC(=O)c3nc(-c4ccccc4Cl)oc3C(F)(F)F)cc2)CC1 [Compound 11, trans-{4-[4-(3-{[2-(2-chlorophenyl)-5-trifluoromethyloxazole-4-carbonyl]amino}propionylamino)phenyl]cyclohexyl}acetic acid]
< 100 nM	–	O=C(O)C[C@H]1CC[C@H](c2ccc(NC(=O)CCNC(=O)c3oc(-c4ccccc4)nc3C(F)(F)F)cc2)CC1 [Compound 15, trans-[4-(4-{3-[(2-phenyl-4-trifluoromethyloxazole-5-carbonyl)amino]propionylamino}phenyl)cyclohexyl]acetic acid]
< 100 nM	–	Cc1ccc(-c2nc(C(=O)NCCC(=O)Nc3ccc([C@H]4CC[C@H](CC(=O)O)CC4)cc3)c(C(F)(F)F)o2)cc1 [Compound 19, trans-[4-(4-{3-[(2-p-tolyl-5-trifluoromethyloxazole-4-carbonyl)amino]propionylamino}phenyl)cyclohexyl]acetic acid]
< 100 nM	–	Cc1ccccc1-c1nc(C(=O)NCCC(=O)Nc2ccc([C@H]3CC[C@H](CC(=O)O)CC3)cc2)c(C(F)(F)F)o1 [Compound 21, trans-[4-(4-{3-[(2-o-tolyl-5-trifluoromethyloxazole-4-carbonyl)amino]propionylamino}phenyl)cyclohexyl]acetic acid]
< 500 nM	–	O=C(O)C[C@H]1CC[C@H](c2ccc(NC(=O)CCNC(=O)c3nc(-c4ccccc4)oc3C(F)(F)F)cc2)CC1 [Compound 22, sodium; trans-[4-(4-{3-[(2-phenyl-5-trifluoromethyloxazole-4-carbonyl)amino]propionylamino}phenyl)cyclohexyl]acetate]
< 100 nM	–	O=C(O)C[C@H]1CC[C@H](c2ccc(NC(=O)CCNC(=O)c3nc(-c4ccc(Br)cc4)oc3C(F)(F)F)cc2)CC1 [Compound 27, trans-{4-[4-(3-{[2-(4-bromophenyl)-5-trifluoromethyloxazole-4-carbonyl]amino}propionylamino)phenyl]cyclohexyl}acetic acid]
< 100 nM	–	Cc1oc(-c2ccccc2)nc1C(=O)NCCC(=O)Nc1ccc([C@H]2CC[C@H](CC(=O)O)CC2)cc1 [Compound 31, trans-[4-(4-{3-[(5-methyl-2-phenyloxazole-4-carbonyl)amino]propionylamino}phenyl)cyclohexyl]acetic acid]
< 500 nM	–	Cc1nc(-c2ccccc2)sc1C(=O)NCCC(=O)Nc1ccc([C@H]2CC[C@H](CC(=O)O)CC2)cc1 [Compound 33, trans-[4-(4-{3-[(4-methyl-2-phenylthiazole-5-carbonyl)amino]propionylamino}phenyl)cyclohexyl]acetic acid]
< 100 nM	–	O=C(O)C[C@H]1CC[C@H](c2ccc(NC(=O)CCNC(=O)c3sc(-c4ccccc4)nc3C(F)(F)F)cc2)CC1 [Compound 37, trans-[4-(4-{3-[(2-phenyl-4-trifluoromethylthiazole-5-carbonyl)amino]propionylamino}phenyl)cyclohexyl]acetic acid]
< 50 nM	good to excellent	NC(=O)C[C@H]1CC[C@H](c2ccc(NC(=O)CCNC(=O)c3nc(-c4ccccc4)oc3C(F)(F)F)cc2)CC1 [Compound 41, trans-2-phenyl-5-trifluoromethyloxazole-4-carboxylic acid{2-[4-(4-carbamoylmethylcyclohexyl)phenylcarbamoyl]ethyl}amide]
< 100 nM	–	Cc1ccc(-n2cc(C(=O)NCCC(=O)Nc3ccc([C@H]4CC[C@H](CC(=O)O)CC4)cc3)c(C(F)(F)F)n2)cc1 [Compound 47, trans-[4-(4-{3-[(1-p-tolyl-3-trifluoromethyl-1H-pyrazole-4-carbonyl)amino]propionylamino}phenyl)cyclohexyl]acetic acid]
< 100 nM	–	O=C(O)C[C@H]1CC[C@H](c2ccc(NC(=O)CCNC(=O)c3cn(-c4ccc(Cl)cc4)nc3C(F)(F)F)cc2)CC1 [Compound 49, trans-{4-[4-(3-{[1-(4-chlorophenyl)-3-trifluoromethyl-1H-pyrazole-4-carbonyl]amino}propionylamino)phenyl]cyclohexyl}acetic acid]
< 100 nM	–	O=C(O)C[C@H]1CC[C@H](c2ccc(NC(=O)CCNC(=O)c3cn(-c4ccccc4Cl)nc3C(F)(F)F)cc2)CC1 [Compound 51, trans-{4-[4-(3-{[1-(2-Chlorophenyl)-3-trifluoromethyl-1H-pyrazole-4-carbonyl]amino}propionylamino)phenyl]cyclohexyl}acetic acid]
< 500 nM	–	O=C(O)C[C@H]1CC[C@H](c2ccc(NC(=O)CCNC(=O)c3nc(-c4ccc(F)cc4)oc3C(F)(F)F)cc2)CC1 [Compound 56, trans-{4-[4-(3-{[2-(4-fluorophenyl)-5-trifluoromethyloxazole-4-carbonyl]amino}propionylamino)phenyl]cyclohexyl}acetic acid]
< 500 nM	–	O=C(O)C[C@H]1CC[C@H](c2ccc(NC(=O)CCNC(=O)c3ccc(OCC4CC4)cc3)cc2)CC1 [Compound 58, trans-(4-{4-[3-(4-cyclopropylmethoxybenzoylamino)propionylamino]phenyl}cyclohexyl)acetic acid]
< 50 nM	good to excellent	O=C(O)C[C@H]1CC[C@H](c2ccc(NC(=O)CCNC(=O)c3nc(-c4ccccc4F)oc3C(F)(F)F)cc2)CC1 [Compound 60, trans-{4-[4-(3-{[2-(2-Fluorophenyl)-5-trifluoromethyloxazole-4-carbonyl]amino}propionylamino)phenyl]cyclohexyl}acetic acid]
< 50 nM	good to excellent	O=C(O)C[C@H]1CC[C@H](c2ccc(NC(=O)CCNC(=O)c3nc(-c4ccc(Cl)cc4Cl)oc3C(F)(F)F)cc2)CC1 [Compound 64, trans-{4-[4-(3-{[2-(2,4-dichlorophenyl)-5-trifluoromethyloxazole-4-carbonyl]amino}propionylamino)phenyl]cyclohexyl}acetic acid]
< 50 nM	good to excellent	O=C(O)C[C@H]1CC[C@H](c2ccc(NC(=O)CCNC(=O)c3nc(-c4ccccc4Br)oc3C(F)(F)F)cc2)CC1 [Compound 65, trans-{4-[4-(3-{[2-(2-Bromophenyl)-5-trifluoromethyloxazole-4-carbonyl]amino}propionylamino)phenyl]cyclohexyl}acetic acid]
< 50 nM	good to excellent	O=C(O)C[C@H]1CC[C@H](c2ccc(NC(=O)CCNC(=O)c3nc(-c4ccccc4C(F)(F)F)oc3C(F)(F)F)cc2)CC1 [Compound 66, trans-{4-[4-(3-{[5-trifluoromethyl-2-(2-trifluoromethylphenyl)oxazole-4-carbonyl]amino}propionylamino)phenyl]cyclohexyl}acetic acid]
< 50 nM	good to excellent	O=C(O)C[C@H]1CC[C@H](c2ccc(NC(=O)CCNC(=O)c3nc(-c4c(Cl)cccc4Cl)oc3C(F)(F)F)cc2)CC1 [Compound 68, trans-{4-[4-(3-{[2-(2,6-dichlorophenyl)-5-trifluoromethyloxazole-4-carbonyl]amino}propionylamino)phenyl]cyclohexyl}acetic acid]
< 50 nM	–	O=C(O)C[C@H]1CC[C@H](c2ccc(NC(=O)CCNC(=O)c3nc(-c4c(Cl)cccc4Cl)oc3C(F)(F)F)cc2)CC1 [Compound 69, sodium; trans-{4-[4-(3-{[2-(2,6-dichlorophenyl)-5-trifluoromethyloxazole-4-carbonyl]amino}propionylamino)phenyl]cyclohexyl}acetate]
< 100 nM	–	O=C(O)C[C@H]1CC[C@H](c2ccc(NC(=O)CCNC(=O)c3nc(-c4c(F)cccc4Cl)oc3C(F)(F)F)cc2)CC1 [Compound 73, trans-{4-[4-(3-{[2-(2-chloro-6-fluorophenyl)-5-trifluoromethyloxazole-4-carbonyl]amino}propionylamino)phenyl]cyclohexyl}acetic acid]
< 100 nM	–	Cc1cccc(C)c1-c1ccc(C(=O)NCCC(=O)Nc2ccc([C@H]3CC[C@H](CC(=O)O)CC3)cc2)cc1 [Compound 75, trans-[4-(4-(3-(2′,6′-dimethylbiphenyl-4-carbonylamino)propionylamino)phenyl)cyclohexyl]acetic acid]
